Tests used:
Assay type in all cases: cell-based, human
ESE-1 [1] = test: ESE-1 mRNA Northern blot in LB-12 osteoblasts; details: LB-12 cells
Experimental: U-87 Mg and U-138 Mg (human glioma), THP-1 (human monocytic), RAW 264.7 (murine monocytic), LB-12 (human osteoblast-like large T antigen transformed bone marrow stromal cells), and human chondrocytes were grown and treated with cytokines as described (Apperley, J., et al. 1990. J Bone Mineral Res. 5:S93; Goldring, M. B., et al. 1994. J Clin Invest 94:2307-16; Goldring, S. R., et al. 1983. J Bone Joint Surg 65:575-84; Libermann, T. A., et al. 1987. Embo J. 6:1627-1632).
Total RNA was harvested using QIAshreder (Qiagen) and RNeasy® Mini Kit (Quiagen) or Trizol (Gibco BRL). Poly A^+ RNA was prepared with MicroPoly(A) Pure (Ambion). Northern blots (5 μg total RNA) were hybridized using a full length ESE-1 cDNA probe as described (Oettgen, P., et al. et al. 1997, Mol Cell Biol 17:4419-33.).
Osteoblasts, the bone cells responsible for bone formation, represent another connective tissue cell target of inflammatory cytokines in joint disorders (Bogoch, E. R., and E. Moran. 1998, Can J Surg 41:264-71). […] LB-12 cells were incubated for different times in the absence or presence of IL-1β. […] Since the rapid, but transient induction of ESE-1 resembles that of immediate early genes, we tested the effect of the protein synthesis inhibitor cycloheximide which superinduces expression of certain genes due to mRNA stabilization. Cycloheximide alone had no effect, but superinduced IL-1β-mediated ESE-1 mRNA expression (FIG. 11d).

COL2A1 = COL2A1 mRNA time course in C-28/I2 chondrocytes; details: earlier time points
ESE-1 [2] = test: ESE-1 mRNA time course in C-28/I2 chondrocytes; details: 10 μg/ml, absence or presence of IL-1β, up through 8 h
Experimental: The immortalized human chondrocyte cell lines T/C-28a2 and C-28/I2 (Goldring M B, et al., J Clin Invest 1994;94:2307-16) were cultured in Dulbecco's modified Eagle's medium (DMEM)/Ham's F12 (1/1, v/v; Life Technologies) containing 10% fetal calf serum (FCS; Biowhitaker) and passaged using trypsin-EDTA solution (Life Technologies) at >95% confluency every 5 to 6 days. The temperature-sensitive tsT/AC62 cells (Robbins J R, et al., Arthritis Rheum 2000;43:2189-201) were grown in DMEM/Ham's F12 (1/1, v/v) supplemented with 10% FCS, 10 IU/ml penicillin, 100 μg/ml streptomycin and maintained at 32° C. in 5% CO2 and the culture medium was changed every 3 to 4 days. The cells were grown to confluence and passaged by treatment with trypsin/EDTA as described previously (Robbins J R, et al., Arthritis Rheum 2000;43:2189-201). Suspensions of tsT/AC62 were embedded in alginate and cultured for X days. […]
We first examined the time course of ESE-1 expression at the mRNA level in the C-28/I2 human chondrocyte cell line after treatment with IL-1β for periods of time between 0.5 and 24 h (FIG. 17). In IL-1β-treated quiescent cultures, ESE-1 mRNA was detected at 30 min, increased to peak levels within 4 h, and declined gradually thereafter. […]

C[C@@H]1C[C@@H]([C@H](O)CC2CC(=O)NC(=O)C2)C(=O)[C@@H](C)C1 [Cycloheximide, cycloheximide]
IL-1β-mediated ESE-1 mRNA expression in presence of agent (ESE-1 [1]): superinduced | ESE-1 mRNA expression, agent alone (ESE-1 [1]; 1, 2, 6, 24 hours): had no effect | IL-1β inhibition of COL2A1 mRNA in presence of agent (COL2A1): appeared to abolish this inhibition | ESE-1 mRNA levels in presence of agent (ESE-1 [2]): stabilized the levels of ESE-1 mRNA and augmented control and IL-1β-stimulated expression

— US6869929B2, “Use of transcription factors for treating inflammation and other diseases” (Beth Israel Deaconess Medical Center, priority 2000, dated 2005)
